From patent US20140045689A1, “3,4-disubstituted pyrrole 2,5-diones and their use as fungicides” (priority 2011, published 2014)

Tests used:
Pyrenophora teres = test: Activity against net blotch Pyrenophora teres in the microtiter test; format: cell-based; conditions: relative growth vs active substance-free control (=100%), absorption 405 nm, day 7 after inoculation
Phakopsora pachyrhizi = test: Protective control of soy bean rust on soy beans caused by Phakopsora pachyrhizi (greenhouse); format: in vivo; conditions: % diseased leaf area, soy bean seedlings sprayed 1 day before inoculation, untreated control 90
Description: (§1) The active substances were formulated separately or together as a stock solution comprising 25 mg of active substance which was made up to 10 ml using a mixture of acetone and/or dimethyl sulfoxide (DMSO) and the emulsifier Wettol EM 31 (wetting agent having emulsifying and dispersing action based on ethoxylated alkylphenols) in a volume ratio of solvent/emulsifier of 99 to 1. This solution was then made up to 100 ml using water. This stock solution was diluted with the solvent/emulsifier/water mixture described to the active substance concentration given below.
Leaves of pot-grown soy bean seedlings were sprayed to run-off with an aqueous suspension, containing the concentration of active ingredient or their mixture as described below. The plants were allowed to air-dry. The trial plants were cultivated for 1 day in a greenhouse chamber at 23-27° C. and a relative humidity between 60 and 80%. Then the plants were inoculated with spores of Phakopsora pachyrhizi. To ensure the success the artificial inoculation, the plants were transferred to a humid chamber with a relative humidity of about 95% and 20 to 24° C. for 24 h. The trial plants were cultivated for fourteen days in a greenhouse chamber at 23-27° C. and a relative humidity between 60 and 80%. The extent of fungal attack on the leaves was visually assessed as % diseased leaf area.

Septoria tritici = test: Preventative control of leaf blotch on wheat caused by Septoria tritici (Septtr P1, greenhouse); format: in vivo; conditions: % diseased leaf area, wheat seedlings sprayed 1 day before inoculation, untreated control 80
Description: as §1
Leaves of pot-grown wheat seedling were sprayed to run-off with an aqueous suspension of the active compound or their mixture, prepared as described. The plants were allowed to air-dry. At the following day the plants were inoculated with an aqueous spore suspension of Septoria tritici. Then the trial plants were immediately transferred to a humid chamber at 18-22° C. and a relative humidity close to 100%. After 4 days the plants were transferred to a chamber with 18-22° C. and a relative humidity close to 70%. After 4 weeks the extent of fungal attack on the leaves was visually assessed as % diseased leaf area.

Plasmopara viticola = format: in vivo; conditions: % diseased leaf area on lower leaf surface, grape cuttings sprayed 1 day before inoculation, untreated control 100
Pyricularia oryzae = format: cell-based; conditions: relative growth vs active substance-free control (=100%), absorption 405 nm, day 7 after inoculation

CN(C)C1=C(C#N)C(=O)N(C)C1=O
melting point: 120 °C

CN1C(=O)C(Oc2ccccc2)=C(Oc2ccccc2)C1=O
Growth at 32 ppm (%) (Pyrenophora teres): 1%

CCN1C(=O)C(Cl)=C(Sc2ccccc2S)C1=O
Disease (%) at 1000 pm Phakpa P1 (Phakopsora pachyrhizi): 3%

CCN1C(=O)C(Cl)=C(Sc2ccccc2O)C1=O
Disease (%) at 1000 pm Septtr P1 (Septoria tritici): 1%

COC1=C(OC)C(=O)N(C)C1=O
Disease (%) at 1000 pm Plasvi P1 (Plasmopara viticola): 20%

CN1C(=O)C(N)=C(Cl)C1=O
Disease (%) at 1000 pm Plasvi P1 (Plasmopara viticola): 7%

CSC1=C(SC)C(=O)N(C)C1=O [drawing 56]
Growth at 32 ppm (%) (Pyrenophora teres): 0%

CCN1C(=O)C(Cl)=C(Nc2ccccc2O)C1=O [drawing 57]
Growth at 32 ppm (%) (Pyrenophora teres): 15%

CCN1C(=O)C=C(Nc2ccccc2O)C1=O [drawing 58]
Growth at 32 ppm (%) (Pyrenophora teres): 12%

CSC1=C(SC)C(=O)N(C)C1=O [drawing 59]
Growth at 32 ppm (%) (Pyricularia oryzae): 0%

CCN1C(=O)C(Cl)=C(Nc2ccccc2O)C1=O [drawing 60]
Growth at 32 ppm (%) (Pyricularia oryzae): 10%

CCN1C(=O)C=C(Nc2ccccc2O)C1=O [drawing 61]
Growth at 32 ppm (%) (Pyricularia oryzae): 11%
